Results as given in patent US11077115B2, “Rorgamma modulators and uses thereof” (Genfit, priority 2017, dated 2021).

Key:
human RORγt [1] = biological target: T1, human RORγt (Homo sapiens, UniProt P51449); experiment: RORE Luciferase/RORγt transactivation assay (IL-17 promoter luciferase reporter in COS-7 cells); assay type: cell-based; set-up: V5-His (named only through the vector pcDNA3.1D/V5-His-TOPO); expressed in transfected cells; host or cells: COS-7 (monkey kidney); conditions: RORγt activity inhibition, luciferase activity in transfected COS-7 cells, 20 h
T1 sequence (P51449 1-497 isoform P51449-2): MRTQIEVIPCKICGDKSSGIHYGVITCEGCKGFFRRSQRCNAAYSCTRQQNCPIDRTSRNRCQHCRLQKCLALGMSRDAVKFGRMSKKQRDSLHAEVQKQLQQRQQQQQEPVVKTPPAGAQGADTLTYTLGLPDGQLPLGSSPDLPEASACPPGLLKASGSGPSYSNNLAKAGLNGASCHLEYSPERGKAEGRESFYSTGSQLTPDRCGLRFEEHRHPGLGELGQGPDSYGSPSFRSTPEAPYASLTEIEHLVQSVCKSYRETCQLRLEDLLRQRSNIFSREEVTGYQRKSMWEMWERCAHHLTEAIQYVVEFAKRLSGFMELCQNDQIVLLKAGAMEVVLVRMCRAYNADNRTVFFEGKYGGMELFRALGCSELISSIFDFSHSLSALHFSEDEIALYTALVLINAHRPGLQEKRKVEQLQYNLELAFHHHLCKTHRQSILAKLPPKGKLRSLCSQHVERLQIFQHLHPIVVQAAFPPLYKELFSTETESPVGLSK
Procedure, shortened: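 COS-7 cells co-transfected with human RORγt and luciferase reporter driven by 4.3 kb IL-17 promoter with CNS enhancer, seeded in serum-free, phenol red-free DMEM. Compounds added at 0.3% DMSO final; luciferase read by Steady-Glo luminescence. IC50 (μM) and Emax (%) reported.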

human RORγt [2] = biological target: T1, human RORγt; experiment: IL-17 secretion from EL4 murine lymphoma overexpressing human RORγt; assay type: cell-based; set-up: V5-His (named only through the vector pcDNA3.1D/V5-His-TOPO); expressed in transfected cells; conditions: IL-17 secretion inhibition in human RORγt-transfected EL4 Tcells, PMA/ionomycin stimulation
Method: Murine EL-4 lymphoma cell line overexpressing human RORγt was used in this functional assay to assess compound ability to inhibit IL-17 cytokine secretion.
EL-4 cells are maintained in a standard culture medium RPMI supplemented with 10% fetal calf serum, 1% sodium pyruvate, 1% essential amino acids and 1% antibiotics at 37° C. in a humidified atmosphere of 5% CO2 and 95% air. Culture medium was changed every 2 days. EL4 cells were transfected with a plasmid encoding hRORγt (sequence identical to published sequence NM 001001523). […] Briefly, 1 μg of DNA/1 million cells was served to transfect EL-4 cells. Cell/DNA suspension was transferred into certified cuvette and the electroporation of RORγt plasmid was carried out using appropriate Nucleofector® program.
Cells were seeded in 96 well plates at a density of 150000 cells/well then treated with compounds of this invention at indicated concentrations and incubated for 24 hours at 37° C. in a humidified atmosphere of 5% CO2 and 95% air. EL-4 cells were pretreated with test compounds (RORγ modulators) and stimulated with PMA (10 ng/mL) and ionomycin (1 μM final concentration) in the presence of test compound concentrations for additional 24 h at 37° C. in a humidified atmosphere of 5% CO2 and 95% air. Subsequently, supernatants were collected (after centrifugation at 300 g for 10 minutes) to determine the concentrations of IL-17 by HTRF (CisBio, France) or ELISA (R&D Systems Europe) according to the manufacturer's protocols.

[3] = biological target: T2, RORγt ligand-binding domain (RORγt-LBD) (Homo sapiens, UniProt P51449); experiment: Time-resolved FRET (TR-FRET) RORγt coactivator assay (RIP140 peptide displacement); assay type: biochemical; conditions: ligand-dependent coactivator-RORγt binding
T2 construct: 20 nM recombinantly expressed RORγ-LBD fused to GST
T2 sequence (P51449 269-508 limits assumed): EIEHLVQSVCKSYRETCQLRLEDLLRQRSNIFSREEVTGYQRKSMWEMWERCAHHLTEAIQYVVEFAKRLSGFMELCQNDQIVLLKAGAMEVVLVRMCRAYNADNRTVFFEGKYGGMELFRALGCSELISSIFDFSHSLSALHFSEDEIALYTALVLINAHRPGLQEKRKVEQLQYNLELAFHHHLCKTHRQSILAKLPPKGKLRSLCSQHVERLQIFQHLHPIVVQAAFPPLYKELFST
Text: Time-resolved FRET (TR-FRET) RORγt coactivator assay was used to identify RORγ modulator compounds with ligand-dependent coactivator displacement. The assay uses a d2-labeled anti-GST antibody, synthetic N-terminally biotinylated peptide which is derived from nuclear receptor coactivator protein RIP140, and a RORγt ligand-binding domain (RORγt-LBD) that is tagged with glutathione-S-transferase (GST). The influence of compounds on the RORγ-peptide interaction relies on the binding dependent energy transfer from a donor to an acceptor fluorophor attached to the binding partner of interest. […] For reduction of background from compound fluorescence, TR-FRET method makes use of generic fluorophore labels and time resolved detection.
The assays were done in a final volume of 20 μl in a 384 well plate in a CHAPS buffer (2 mM CHAPS; 1 mM DTT, 2 mM EDTA; 0.1% BSA), containing 20 nM recombinantly expressed RORγ-LBD fused to GST, 30 nM N-terminally biotinylated peptide, 1 nM streptavidin-terbium conjugate and 20 nM d2 labeled-anti-GST. Test compounds were diluted using 10 mM stock solution. The range of the final compound concentrations used in this test was from 0.3 nM to 30 μM (logarithmic scale). DMSO content of the samples was kept at 1%. The assay was equilibrated for 2 hours in the dark at room temperature in 384 well plates (Falcon). The signal was detected by an Ultra384 reader (TECAN). […] Compounds that promote coactivator displacement induce a concentration-dependent decrease in time-resolved fluorescent signal. Data were collected and analyzed using GraphPad Prism software (GraphPad Software V5.02, San Diego Calif. USA). IC50 in μM and E max in % were reported for each compound.

SMILES	IC50 (human RORγt [1]) [µM]	IC50 (human RORγt [2]) [µM]	IC50 [3] [µM]
Cc1ccc(C(NC(=O)Cc2ccc(N3CCS(=O)(=O)CC3)cc2)c2ccccc2)c(N2CC3CC3C2)c1 (centres unmarked) [Cpd. 22, N-[(2-{3-azabicyclo[3.1.0]hexan-3-yl}-4-methylphenyl)(phenyl)methyl]-2-[4-(1,1-dioxo-1-thiomorpholin-4-yl)phenyl]acetamide]	< 0.1	0.1 to 1	< 1
Cc1ccc(C(NC(=O)Cc2ccc(N3CCS(=O)(=O)CC3)c(C)c2)c2ccccc2)c(N2CC3CC3C2)c1 (centres unmarked) [Cpd. 23, N-[(2-{3-azabicyclo[3.1.0]hexan-3-yl}-4-methylphenyl)(phenyl)methyl]-2-[4-(1,1-dioxo-1-thiomorpholin-4-yl)-3-methylphenyl]acetamide]	< 0.1	0.1 to 1	0.1 to 1
Cc1ccc(C(NC(=O)C2(c3ccc(N4CCS(=O)(=O)CC4)c(C)n3)CC2)c2ccc(C)o2)c(C)c1 (centres unmarked) [Cpd. 71, N-[(2,4-dimethylphenyl)(5-methylfuran-2-yl)methyl]-1-[5-(1,1-dioxo-1-thiomorpholin-4-yl)-6-methylpyridin-2-yl]cyclopropane-1-carboxamide]	< 0.1	0.1 to 1	< 1
Cc1ccc(C(NC(=O)Cc2cc(N3CCS(=O)(=O)CC3)ccc2C)c2ccc(C)o2)c(N2CCCCC2)c1 (centres unmarked) [Cpd. 5, 2-[5-(1,1-dioxo-1-thiomorpholin-4-yl)-2-methylphenyl]-N-{[4-methyl-2-(piperidin-1-yl)phenyl](5-methylfuran-2-yl)methyl}acetamide]	0.1 to 1	0.1 to 1	0.1 to 1
Cc1ccc(C(NC(=O)C2(c3cc(N4CCS(=O)(=O)CC4)ccc3C)CC2)c2ccc(C)o2)c(C)c1 (centres unmarked) [Cpd. 70, N-[(2,4-dimethylphenyl)(5-methylfuran-2-yl)methyl]-1-[5-(1,1-dioxo-1-thiomorpholin-4-yl)-2-methylphenyl]cyclopropane-1-carboxamide]	–	1 to 10	0.1 to 1

More lines, now with the values ahead:

IC50 (human RORγt [1]) [µM]	IC50 (human RORγt [2]) [µM]	IC50 [3] [µM]	SMILES
< 0.1	< 1	< 1	Cc1ccc(C(NC(=O)Cc2ccc(N3CCS(=O)(=O)CC3)cc2C)c2ccc(C)o2)c(C)c1 (centres unmarked) [Cpd. 19, N-[(2,4-dimethylphenyl)(5-methylfuran-2-yl)methyl]-2-[4-(1,1-dioxo-1-thiomorpholin-4-yl)-2-methylphenyl]acetamide]
< 0.1	< 1	< 1	Cc1ccc(C(NC(=O)C2(c3cnc(N4CCS(=O)(=O)CC4)nc3)CC2)c2ccc(C)o2)c(C)c1 (centres unmarked) [Cpd. 48, N-[(2,4-dimethylphenyl)(5-methylfuran-2-yl)methyl]-1-[2-(1,1-dioxo-1-thiomorpholin-4-yl)pyrimidin-5-yl]cyclopropane-1-carboxamide]
< 0.1	< 1	< 1	Cc1ccc(C(NC(=O)Cc2ccc(O)c(N3CCS(=O)(=O)CC3)c2)c2ccc(C)o2)c(N2CCCCC2)c1 (centres unmarked) [Cpd. 39, 2-[3-(1,1-dioxo-1-thiomorpholin-4-yl)-4-hydroxyphenyl]-N-{[4-methyl-2-(piperidin-1-yl)phenyl](5-methylfuran-2-yl)methyl}acetamide]
< 0.1	< 1	< 1	Cc1ccc(C(NC(=O)Cc2ccc(N3CCS(=O)(=O)CC3)nc2)c2ccc(C)o2)c(N2CCCCC2)c1 (centres unmarked) [Cpd. 27, 2-[6-(1,1-dioxo-1-thiomorpholin-4-yl)pyridin-3-yl]-N-{[4-methyl-2-(piperidin-1-yl)phenyl](5-methylfuran-2-yl)methyl}acetamide]
< 0.1	< 1	< 1	Cc1ccc(C(NC(=O)Cc2cnc(N3CCS(=O)(=O)CC3)nc2C)c2ccc(C)o2)c(N2CCCCC2)c1 (centres unmarked) [Cpd. 38, 2-[2-(1,1-dioxo-1-thiomorpholin-4-yl)-4-methylpyrimidin-5-yl]-N-{[4-methyl-2-(piperidin-1-yl)phenyl](5-methylfuran-2-yl)methyl}acetamide]
